Common to all, as to type: cell-based
In one assay the target is T1, human TLR7 (Homo sapiens, UniProt Q9NYK1).
T1 construct: host or cells: HEK-Blue cells
T1 sequence (Q9NYK1 27-1049): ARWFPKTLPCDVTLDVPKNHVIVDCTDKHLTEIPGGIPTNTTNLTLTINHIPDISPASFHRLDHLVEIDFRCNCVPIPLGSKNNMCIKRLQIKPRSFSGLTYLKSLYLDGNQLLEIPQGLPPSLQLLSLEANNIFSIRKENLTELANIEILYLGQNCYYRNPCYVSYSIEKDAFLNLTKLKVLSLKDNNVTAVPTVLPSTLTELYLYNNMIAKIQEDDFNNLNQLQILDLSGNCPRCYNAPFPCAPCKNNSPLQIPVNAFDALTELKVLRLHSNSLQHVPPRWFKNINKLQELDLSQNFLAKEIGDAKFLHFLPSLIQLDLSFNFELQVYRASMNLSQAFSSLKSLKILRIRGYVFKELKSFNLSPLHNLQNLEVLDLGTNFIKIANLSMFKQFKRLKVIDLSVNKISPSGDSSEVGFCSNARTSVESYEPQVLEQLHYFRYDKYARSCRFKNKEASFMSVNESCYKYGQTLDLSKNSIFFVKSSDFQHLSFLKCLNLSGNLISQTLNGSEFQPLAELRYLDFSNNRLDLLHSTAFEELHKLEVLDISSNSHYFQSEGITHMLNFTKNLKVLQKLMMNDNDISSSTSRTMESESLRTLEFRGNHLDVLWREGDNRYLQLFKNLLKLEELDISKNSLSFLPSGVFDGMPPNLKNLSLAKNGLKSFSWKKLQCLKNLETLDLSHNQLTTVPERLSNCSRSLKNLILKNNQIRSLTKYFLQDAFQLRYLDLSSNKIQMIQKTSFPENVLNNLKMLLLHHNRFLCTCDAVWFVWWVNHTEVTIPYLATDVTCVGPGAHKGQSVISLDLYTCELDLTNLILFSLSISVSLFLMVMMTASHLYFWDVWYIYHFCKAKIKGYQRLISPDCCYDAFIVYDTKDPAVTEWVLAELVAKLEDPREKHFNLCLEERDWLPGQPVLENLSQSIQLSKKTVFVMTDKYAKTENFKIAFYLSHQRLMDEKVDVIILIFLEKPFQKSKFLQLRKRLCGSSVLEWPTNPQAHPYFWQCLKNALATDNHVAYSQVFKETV
As to the kind of experiment: TLR7 inhibition reporter assay (HEK-Blue SEAP). Conditions: HEK-Blue cells overexpressing human TLR7, stimulated with gardiquimod 7.5 μM, 22 hour incubation. In outline:
(§1)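 Reporter HEK-Blue lines; cpd 0.05 nM–50 μM, 30 min preincubation RT; agonist: TLR7 gardiquimod 7.5 μM, TLR8 R848 15.9 μM, TLR9 ODN2006 5 nM; 22 h 37 °C; SEAP detected colorimetrically; % inhib vs known inhibitor.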
(Reporter assays use an easily measured gene product as a stand-in for the process of interest.)

The target of a further assay is T2, human TLR8 (Homo sapiens, UniProt Q9NR97).
T2 construct: host or cells: HEK-Blue cells
T2 sequence (Q9NR97 27-1041): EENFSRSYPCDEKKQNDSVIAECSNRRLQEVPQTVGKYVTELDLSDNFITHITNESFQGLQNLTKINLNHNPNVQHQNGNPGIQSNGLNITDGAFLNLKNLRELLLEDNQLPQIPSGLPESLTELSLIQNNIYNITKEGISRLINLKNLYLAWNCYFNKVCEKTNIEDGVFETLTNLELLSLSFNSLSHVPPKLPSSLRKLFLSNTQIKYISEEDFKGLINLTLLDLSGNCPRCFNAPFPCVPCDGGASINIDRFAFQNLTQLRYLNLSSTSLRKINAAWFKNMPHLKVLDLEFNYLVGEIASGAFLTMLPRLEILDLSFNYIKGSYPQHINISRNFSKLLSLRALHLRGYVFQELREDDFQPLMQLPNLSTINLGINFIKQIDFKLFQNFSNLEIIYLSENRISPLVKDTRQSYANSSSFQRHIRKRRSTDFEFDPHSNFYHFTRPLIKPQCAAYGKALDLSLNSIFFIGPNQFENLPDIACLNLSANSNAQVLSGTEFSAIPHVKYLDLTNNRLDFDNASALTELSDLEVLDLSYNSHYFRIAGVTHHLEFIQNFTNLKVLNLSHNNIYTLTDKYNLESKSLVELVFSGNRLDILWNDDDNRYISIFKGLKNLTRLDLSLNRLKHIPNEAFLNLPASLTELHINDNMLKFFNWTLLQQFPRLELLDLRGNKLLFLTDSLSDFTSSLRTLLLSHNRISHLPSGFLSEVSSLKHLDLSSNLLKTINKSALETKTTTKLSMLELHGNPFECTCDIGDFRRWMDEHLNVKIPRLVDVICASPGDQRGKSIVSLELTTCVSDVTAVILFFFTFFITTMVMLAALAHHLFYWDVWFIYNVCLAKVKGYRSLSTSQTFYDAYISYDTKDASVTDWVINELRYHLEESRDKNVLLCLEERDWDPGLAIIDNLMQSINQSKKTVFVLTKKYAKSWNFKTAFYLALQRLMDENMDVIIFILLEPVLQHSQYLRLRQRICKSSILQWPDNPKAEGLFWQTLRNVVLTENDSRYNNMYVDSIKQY
As to the kind of experiment: TLR8 inhibition reporter assay (HEK-Blue SEAP). Conditions: HEK-Blue cells overexpressing human TLR8, stimulated with R848 15.9 μM, 22 hour incubation. The procedure, abridged:
as §1

In the next assay the target is T3, human TLR9 (Homo sapiens, UniProt Q9NR96).
T3 construct: host or cells: HEK-Blue cells
T3 sequence (Q9NR96 26-1032): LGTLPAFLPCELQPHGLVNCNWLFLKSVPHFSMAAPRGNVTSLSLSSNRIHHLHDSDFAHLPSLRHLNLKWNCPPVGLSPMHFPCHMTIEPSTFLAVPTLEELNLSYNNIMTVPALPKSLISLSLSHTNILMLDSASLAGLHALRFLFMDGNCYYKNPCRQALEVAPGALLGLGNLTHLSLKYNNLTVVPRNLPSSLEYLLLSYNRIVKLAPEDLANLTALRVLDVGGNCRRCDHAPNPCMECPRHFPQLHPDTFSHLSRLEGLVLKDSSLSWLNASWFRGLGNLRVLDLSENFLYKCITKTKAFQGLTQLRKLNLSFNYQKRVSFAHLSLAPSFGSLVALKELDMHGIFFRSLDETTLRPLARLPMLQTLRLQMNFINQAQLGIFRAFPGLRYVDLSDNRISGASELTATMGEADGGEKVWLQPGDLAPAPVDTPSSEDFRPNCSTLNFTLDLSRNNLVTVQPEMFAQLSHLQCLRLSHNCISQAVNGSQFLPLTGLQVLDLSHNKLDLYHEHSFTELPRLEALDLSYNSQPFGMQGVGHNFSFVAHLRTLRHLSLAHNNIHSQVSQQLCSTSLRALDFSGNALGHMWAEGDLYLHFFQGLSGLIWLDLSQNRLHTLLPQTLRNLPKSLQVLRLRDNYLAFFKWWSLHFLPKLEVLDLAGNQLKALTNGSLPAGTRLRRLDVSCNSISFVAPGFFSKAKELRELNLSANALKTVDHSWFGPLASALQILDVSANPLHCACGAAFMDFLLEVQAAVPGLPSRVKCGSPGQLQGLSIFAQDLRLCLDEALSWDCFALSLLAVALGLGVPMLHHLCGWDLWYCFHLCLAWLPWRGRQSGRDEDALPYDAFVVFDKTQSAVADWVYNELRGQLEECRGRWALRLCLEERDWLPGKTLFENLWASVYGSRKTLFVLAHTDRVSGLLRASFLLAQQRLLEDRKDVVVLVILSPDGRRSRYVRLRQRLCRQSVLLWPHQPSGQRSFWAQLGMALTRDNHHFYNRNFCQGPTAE
As to the kind of experiment: TLR9 inhibition reporter assay (HEK-Blue SEAP). Conditions: HEK-Blue cells overexpressing human TLR9, stimulated with ODN2006 5 nM, 22 hour incubation. The procedure, abridged:
as §1

The record followed here is patent US12172995B2, “Substituted indole and indazole compounds” (BRISTOL-MYERS SQUIBB COMPANY, priority 2018, dated 2024).

Each structure is given as a SMILES string. pIC50: −log10 of the molar value. Some results are limits rather than exact numbers.

Usually pIC50 stands for the IC50 on a negative log10 scale, so that one unit is a factor of ten. As for `Cc1cc2c(C3CCC(NC4CC4)CC3)n[nH]c2cc1-c1cc(C)c2ncnn2c1` (stereo not drawn) [Example 37, N-cyclopropyl-4-(5-methyl-6-(8-methyl-[1,2,4]triazolo[1,5-a]pyridin-6-yl)-1H-indazol-3-yl)cyclohexan-1-amine], the pIC50 against human TLR7 was 7.91; against human TLR8, 9.40; at human TLR9, 5.29.

As for `Cc1cc(-c2cc3[nH]nc(C4CCC(N5CC(C)(O)C5)CC4)c3cc2C(C)C)cn2ncnc12` (stereo not drawn) [Example 154, 1-(4-(5-isopropyl-6-(8-methyl-[1,2,4]triazolo[1,5-a]pyridin-6-yl)-1H-indazol-3-yl)cyclohexyl)-3-methylazetidin-3-01], the figures for the pIC50 against human TLR7, on human TLR8 and at human TLR9 were 9.30, 9.70 and 4.80, respectively.

As for `Cc1cc2c(C3CCCN(CC(=O)N(C)C)C3)n[nH]c2cc1-c1cc(C)c2ncnn2c1` (stereo not drawn) [Example 57, N,N-dimethyl-2-(3-(5-methyl-6-(8-methyl-[1,2,4]triazolo[1,5-a]pyridin-6-yl)-1H-indazol-3-yl)piperidin-1-yl)acetamide], the values for the pIC50 on human TLR7, against human TLR8 and against human TLR9 were 7.70, 8.35 and 5.16, respectively.

`Cc1cc(-c2cc3[nH]nc(C4CCC(N5CCC6(CCOC6)C5)CC4)c3cc2C(C)C)cn2ncnc12` (single isomer, unassigned) [Example 209, 7-(4-(5-isopropyl-6-(8-methyl-[1,2,4]triazolo[1,5-a]pyridin-6-yl)-1H-indazol-3-yl)cyclohexyl)-2-oxa-7-azaspiro[4.4]nonane]: the pIC50 is 9.21 at human TLR7, 10.30 on human TLR8 and 5.10 at human TLR9.

`Cc1cc(-c2cc(C)c3ncnn3c2)cc2[nH]nc(OC3CCC(NCC(=O)N(C)C)CC3)c12` (single isomer, unassigned) [Example 186, N,N-dimethyl-2-((4-((4-methyl-6-(8-methyl-[1,2,4]triazolo[1,5-a]pyridin-6-yl)-1H-indazol-3-yl)oxy)cyclohexyl)amino)acetamide]: the pIC50 against human TLR7 was 8.62; against human TLR8, 8.72; against human TLR9, 5.59.

Turning to `CCc1cc2c(C3CCC(N(C)C)CC3)n[nH]c2cc1-c1cc(C)c2ncnn2c1` (single isomer, unassigned) [Example 93, 4-(5-ethyl-6-(8-methyl-[1,2,4]triazolo[1,5-a]pyridin-6-yl)-1H-indazol-3-yl)-N,N-dimethylcyclohexan-1-amine], the pIC50 is 9.10 on human TLR7, 10.00 on human TLR8 and 5.21 against human TLR9.

For the compound `CCc1cc2c(C3CCN(CCC#N)CC3)n[nH]c2cc1-c1cc(C)c2ncnn2c1` [Example 106, 3-(4-(5-ethyl-6-(8-methyl-[1,2,4]triazolo[1,5-a]pyridin-6-yl)-1H-indazol-3-yl)piperidin-1-yl)propanenitrile], the pIC50 is 8.14 against human TLR7, 9.70 on human TLR8 and 4.40 against human TLR9.

`Cc1cc(-c2cc3[nH]nc(C4CCN(C5COC5)CC4)c3cc2C(C)C)cn2ncnc12` [Example 120, 6-(5-isopropyl-3-(1-(oxetan-3-yl)piperidin-4-yl)-1H-indazol-6-yl)-8-methyl-[1,2,4]triazolo[1,5-a]pyridine]: the negative-log IC50 (pIC50) against human TLR7 was 8.13; on human TLR8 it was 8.96; against human TLR9 it was at most 4.30.

`CCc1cc2c(C3CCN(C(=O)CCCN(C)C)CC3)n[nH]c2cc1-c1cc(C)c2ncnn2c1` [Example 107, 4-(dimethylamino)-1-(4-(5-ethyl-6-(8-methyl-[1,2,4]triazolo[1,5-a]pyridin-6-yl)-1H-indazol-3-yl)piperidin-1-yl)butan-1-one]: the pIC50 at human TLR7 is 7.99; against human TLR8, 8.77; at human TLR9, 4.78.

For `Cc1cc(-c2cc(C)c3ncnn3c2)cc2[nH]nc(C3CCCN(CC(=O)N(C)C)C3)c12` (stereo not drawn) [Example 59, N,N-dimethyl-2-(3-(4-methyl-6-(8-methyl-[1,2,4]triazolo[1,5-a]pyridin-6-yl)-1H-indazol-3-yl)piperidin-1-yl)acetamide], the pIC50 against human TLR7 is 7.98; against human TLR8 it was 7.36; at human TLR9, 5.49.

Regarding `CCc1cc(-c2cc(C)c3ncnn3c2)cc2[nH]nc(OC3CCN(CC(=O)N(C)C)CC3)c12` [Example 196, 2-(4-((4-ethyl-6-(8-methyl-[1,2,4]triazolo[1,5-a]pyridin-6-yl)-1H-indazol-3-yl)oxy)piperidin-1-yl)-N,N-dimethylacetamide], the pIC50 was 8.31 against human TLR7, 9.00 on human TLR8 and 5.24 at human TLR9.

On to `CCc1cc2c(C3CCN(CC(=O)N(C)C)CC3)n[nH]c2cc1-c1cc(C)c2ncnn2c1` [Example 91, 2-(4-(5-ethyl-6-(8-methyl-[1,2,4]triazolo[1,5-a]pyridin-6-yl)-1H-indazol-3-yl)piperidin-1-yl)-N,N-dimethylacetamide], for which the values for the pIC50 on human TLR7, at human TLR8 and against human TLR9 were 8.43, 9.40 and 4.84, respectively.
